The values below come from patent US4786755A, “Diphenic acid monoamides” (Warner-Lambert Company, priority 1986, dated 1988).

Molecules are shown by their SMILES.

The target of the assay is T1, leukotriene receptor (Cavia porcellus, UniProt Q2NNR5).
T1 construct: 20 mg original tissue wet weight of guinea pig lung membranes; tissue Kuiper Rabbit Farm, Gary, IN (animals); host or cells: guinea pig lung, crude membranes
T1 sequence (Q2NNR5 1-340): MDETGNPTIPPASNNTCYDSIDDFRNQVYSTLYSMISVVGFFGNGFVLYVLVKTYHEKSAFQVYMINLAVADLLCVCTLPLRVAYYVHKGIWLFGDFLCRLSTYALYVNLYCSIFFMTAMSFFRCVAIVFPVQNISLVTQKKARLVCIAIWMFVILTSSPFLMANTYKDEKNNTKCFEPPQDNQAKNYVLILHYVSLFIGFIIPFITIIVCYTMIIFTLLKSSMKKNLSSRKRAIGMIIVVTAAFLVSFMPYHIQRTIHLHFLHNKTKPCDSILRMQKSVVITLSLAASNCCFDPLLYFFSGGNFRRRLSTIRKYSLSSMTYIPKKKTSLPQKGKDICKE
The experiment in a line: Binding of ^3 H-Leukotriene D4 to Guinea Pig Lung Membranes (RBL). The settings on record: ^3 H-LTD4, guinea pig lung membranes; read-out: IC50 RBL1. How it is done: Additionally, the activity, of the compounds having the Formula I of the present invention is determined by the well known leukotriene receptor binding assay that is described by R. F. Bruns, W. J. Thomsen and T. A. Pugsley in Life Sciences, 33, 645 (1983) or the Herxheimer in vivo antiallergy test described in H. Herxheimer, J. Physiol. (London), Vol. 177, p. 251 (1952).
Binding of ^3 H-Leukotriene D4 to Guinea Pig Lung Membranes (RBL)
[14,15-^3 H]leukotriene D4 (^3 H-LTD4) (25 Ci/mmol and 40 Ci/mmol) is purchased from New England Nuclear. Unlabeled LTC4 is a gift of Ono Pharmaceuticals (Japan). LTC4, LTD4, and LTE4 are purchased as methyl esters from Paesel GmbH (Frankfurt, W. Germany). Concentrations of the Paesel leukotrienes are calculated from their absorbance at 280 nm. Leukotriene esters are saponified overnight under N2 in 3.3% potassium carbonate at room temperature. Tritiated leukotrienes are stored as received from New England Nuclear at -20° C. Ono LTC4 (5 μg/ml is stored at -60° C. in phosphate buffer pH 6.8. Saponified Paesel leukotrienes are stored at -60° C. in 3.3% potassium carbonate (pH 9.0-9.5). Aliquots of leukotrienes are taken from stock solutions immediately after thawing, after which the stock solutions are immediately refrozen. 2-Amino-2-(hydroxymethyl)-1,3-propanediol (Tris) is Sigma pH 7.7 pre-set crystals, and dimethylsulfoxide is Aldrich Gold Label.
Preparation of crude lung membranes
Two pairs of lungs (1.3 g) from freshly sacrificed 300 g male guinea pigs (older animals gave substantially lower binding) from Kuiper Rabbit Farm, Gary, IN are disrupted with a Polytron PT 10 (setting 4) for 30 seconds in 20 ml ice-cold 50 mM Tris adjusted with HCl to pH 7.7 at 25° C. (Tris buffer), filtered through a single layer of gauze to remove connective tissue, and centrifuged at 50,000 xg for ten min. The pellet is resuspended by homogenization with a Polytron in 20 ml Tris buffer, centrifuged at 50,000 xg for ten min., resuspended, incubated at 37° C. for 30 minutes, and centrifuged again. The final pellet is resuspended in Tris buffer and either used fresh or stored at -70° C.
All incubations are in triplicate for 60 minutes at 25° C. in 12×75 mm polystyrene tubes containing 1 ml Tris buffer with 20 mg original tissue wet weight of guinea pig lung membranes, 0.2 nM ^3 H-LTD4 (6,000-11,000 cpm), 10 mM MgCl2, and 1% dimethylsulfoxide. Leukotrienes are diluted in Tris buffer. All other test compounds are dissolved at 10 mM in dimethylsulfoxide on the same day as the experiment, and diluted in dimethylsulfoxide to 100× the final incubation concentration. Control incubations receive an equal volume (10 μl) of dimethylsulfoxide; the resulting concentration of dimethylsulfoxide had no effect on binding. ^3 H-LTD4 is diluted to 2 nM in Tris buffer. The membrane suspension (20 mg/0.89 ml) contains sufficient MgCl2 to give 10 mM final concentration in the incubation. […] All additions are performed at 0° C. Immediately after the last addition, the incubation is initiated by agitating the rack of tubes on a vortex mixer and warming to 25° C. in a water bath. Tubes are vortexed at least once more during the incubation to ensure that the membranes remained suspended. Incubations are terminated after 60 minutes by filtering under reduced pressure through 25 mm Whatman GF/B filters followed by rapid washing three times with 4 ml of ice-cold Tris buffer. Filters are added to scintillation vials with 8 ml Formula 947 (New England Nuclear), left overnight, shaken, and the radioactivity counted in a scintillation counter (efficiency 40%). Nonspecific binding, defined as binding of ^3 H-LTD4 in the presence of 100 nM LTC4, is 300-500 cpm for all lots of ^3 H-LTD4. Binding to the filters in the absence of tissue is about 100 cpm, and is not affected by unlabeled LTC4. Specific binding, defined as total binding minus nonspecific binding, varied considerably from lot to lot of ^3 H-LTD4. […]
Consider `O=C(O)c1ccccc1-c1ccccc1C(=O)Nc1cccc(CCCc2ccc(Cl)c(Cl)c2)c1` [Example 6, [1,1'-Biphenyl]-2-carboxylic acid, 2'-[[[3-[3-(3,4-dichlorophenyl)propyl]phenyl]amino]carbonyl]], for which the half-inhibitory concentration (IC50) came out at 1 µM. Regarding `O=C(O)c1ccccc1-c1ccccc1C(=O)Nc1ccc(CCc2cc(C(F)(F)F)cc(C(F)(F)F)c2)cc1` [Example 13, [1,1'-Biphenyl]-2-carboxylic acid, 2'-[[[4-[2-[3,5-bis(trifluoromethyl)phenyl]ethyl]phenyl]amino]carbonyl]-], the IC50 turned out to be 5.4 µM. The value for `CCCCCCCCCCc1ccc(NC(=O)c2ccccc2-c2ccccc2C(=O)O)cc1` [Example 20] was 11.2 µM. Regarding `O=C(O)c1ccccc1-c1ccccc1C(=O)Nc1ccc(OCCCCc2ccccc2)cc1` [Example 44, [1,1'-Biphenyl]-2-carboxylic acid, 2'-[[[4-(4-phenylbutyloxy)phenyl]amino]carbonyl]-], the IC50 is 1.2 µM. The value for `O=C(C=Cc1ccc(Cl)c(Cl)c1)c1ccc(NC(=O)c2ccccc2-c2ccccc2C(=O)O)cc1` [Example 46, [1,1'-Biphenyl]-2-carboxylic acid, 2'-[[[4-[1-oxo-3-(3,4-dichlorophenyl)-2-propenyl]phenyl]amino]-carbonyl]-] was 5.7 µM. The value for `O=C(C=Cc1ccc(Br)cc1)c1ccc(NC(=O)c2ccccc2-c2ccccc2C(=O)O)cc1` [Example 47, [1,1'-Biphenyl]-2-carboxylic acid, 2'-[[[4-[1-oxo-3-(4-bromophenyl)-2-propenyl]phenyl]amino]carbonyl]-] was 27.1 µM; that for `CN(C)c1ccc(CCC(=O)c2ccc(NC(=O)c3ccccc3-c3ccccc3C(=O)O)cc2)cc1` [Example 48, [1,1'-Biphenyl]-2-carboxylic acid, 2'-[[[4-[1-oxo-3-(4-dimethylaminophenyl)propyl]phenyl]amino]carbonyl]-] was 53.1 µM.

Regarding `O=C(CCc1ccc(Cl)cc1)c1ccc(NC(=O)c2ccccc2-c2ccccc2C(=O)O)cc1` [Example 49, [1,1'-Biphenyl]-2-carboxylic acid, 2'-[[[4-[1-oxo-3-(4-chlorophenyl)propyl]phenyl]amino]carbonyl]-], the 50% inhibitory concentration (IC50) is 7.5 µM.

As to `O=C(O)c1ccccc1-c1ccccc1C(=O)Nc1cccc(CCCCc2ccc(Cl)c(Cl)c2)c1` [Example 50, [1,1'-Biphenyl]-2-carboxylic acid, 2'-[[[3-[4-(3,4-dichlorophenyl)butyl]phenyl]amino]carbonyl]-], the IC50 stood at 0.7 µM.

On to `O=C(CCc1ccc(Br)cc1)c1ccc(NC(=O)c2ccccc2-c2ccccc2C(=O)O)cc1` [Example 51, [1,1'-Biphenyl]-2-carboxylic acid, 2'-[[[4-[1-oxo-3-(4-bromophenyl)propyl]phenyl]amino]-carbonyl]-], for which the IC50 amounted to 7.2 µM. As for `O=C(O)c1ccccc1-c1ccccc1C(=O)Nc1ccc(CCc2ccc(Oc3ccccc3)cc2)cc1` [Example 52], the concentration for half-maximal inhibition (IC50) came to 13.2 µM. Turning to `O=C(O)c1ccccc1-c1ccccc1C(=O)Nc1cccc(CCc2ccc(Oc3ccccc3)cc2)c1` [Example 53], the IC50 amounted to 2.4 µM. In the case of `O=C(CCc1ccc(NC(=O)c2ccccc2-c2ccccc2C(=O)O)cc1)c1ccc(Oc2ccccc2)cc1` [Example 54, [1,1'-Biphenyl]-2-carboxylic acid, 2'-[[[4-[3-oxo-3-(4-phenoxyphenyl)propyl]phenyl]amino]carbonyl]-], the concentration for half-maximal inhibition (IC50) turned out to be 17.1 µM. Turning to `O=C(O)c1ccccc1-c1ccccc1C(=O)Nc1ccc(CCCc2ccc(Oc3ccccc3)cc2)cc1` [Example 55, [1,1'-Biphenyl]-2-carboxylic acid, 2'-[[[4-[3-(4-phenoxyphenyl)propyl]phenyl]amino]carbonyl]-], the IC50 stood at 13.1 µM. The value for `O=C(CCCCc1ccc(Cl)c(Cl)c1)c1ccc(NC(=O)c2ccccc2-c2ccccc2C(=O)O)cc1` [Example 56, [1,1'-Biphenyl]-2-carboxylic acid, 2'-[[[4-[5-(3,4-dichlorophenyl)-1-oxopentyl]phenyl]amino]-carbonyl]-] was 3.8 µM. For the compound `CC(CC(=O)CCc1ccc(NC(=O)c2ccccc2-c2ccccc2C(=O)O)cc1)c1ccccc1` (centres unmarked) [Example 57, [1,1'-Biphenyl]-2-carboxylic acid, 2'-[[[4-[5-phenyl-3-oxohexyl]phenyl]amino]carbonyl]-], the IC50 was 44.9 µM.

With `O=C(O)c1ccccc1-c1ccccc1C(=O)Nc1ccc(CCCCCc2ccc(Cl)c(Cl)c2)cc1` [Example 58, [1,1'-Biphenyl]-2-carboxylic acid, 2'-[[[4-[5-(3,4-dichlorophenyl]pentyl]phenyl]amino]carbonyl]-], the IC50 turned out to be 7.3 µM.

In general, IC50 refers to the point on the concentration scale where inhibition reaches its midpoint.
